Patent publication US20190241864A1, “Composition Comprising Non-Germinant and Bacterial Spores” (NOVOZYMES BIOAG A/S, priority 2016, published 2019)

Assays:
[1] = system: spores from Bacillus pumilus strain SB3189; assay: Germinant testing of heat-activated spores, decrease in relative OD580; format: cell-based; details: 3 mM
[2] = system: spores from Bacillus amyloliquefaciens strain SB3615; assay: as above; details: substance alone, 3 mM; 37° C., 70 minutes
[3] = system: spores from Bacillus megaterium strain SB3112; assay: as above; format: cell-based; details: Example 2 studies, 3 mM
[4] = system: Bacillus megaterium strain SB3112 spores; assay: Spore germination by DPA release after L-asparagine treatment; format: cell-based; details: for Gmax: mean of 3
[5] = system: Bacillus pumilus strain SB3189 spores; assay: Spore germination by dipicolinic acid (DPA) release (Tb-DPA fluorescence) after L-valine treatment; format: cell-based; details: for Gmax: then 10 mM AAGFK, mean of 3
Protocol: This was performed three consecutive times.
Germination of spores in these studies was determined by measuring dipicolinic acid (DPA). DPA is about 10% of the mass of endospores, all of which is generally released when germination is triggered. Boiling spores generally releases all of the DPA. DPA release was detected using terbium chloride (TbCl3), as described below.
To perform the germination assays, 30 μl of spores were added to wells of a 96-well flat-bottom microtiter plate. Subsequently, 35 μl of a 250 μM TbCl3 stock was added. At time 0, 85 μl of a 10 mM L-alanine+10 mM AGFK (10 mM AGFK is 10 mM each of L-asparagine, D-glucose, D-fructose, and KCl) (10 mM AAGFK) was added. […] Tb-DPA is excited at 270 nm and emits at 545 nm. All experimental samples were tested in triplicate. Baseline controls for each sample were generated by omitting L-alanine and these were performed in duplicate. All sample wells were measured immediately after […] was added (time 0) and then over time. For each time point, the data were normalized to values for the spores that had been boiled for two hours to force 100% release of DPA from the spores.

SMILES: O=C(CO)[C@@H](O)[C@H](O)[C@H](O)CO [D-fructose]
- germination of spores by substance alone [1]: None of L-alanine, L-cysteine, D-fructose, or sucrose alone, at a concentration of 3 mM, caused germination

SMILES: C[C@H](N)C(=O)O [L-alanine]
- germination of spores [2]: could cause germination
- germination of spores by substance alone [1]: None of L-alanine, L-cysteine, D-fructose, or sucrose alone, at a concentration of 3 mM, caused germination

SMILES: NC(=O)C[C@H](N)C(=O)O [L-asparagine]
- germinant behavior [3]: not shown to have germinant behavior
- Gmax compared to spores not pretreated with L-asparagine ([4]; 4° C., native and heat-activated spores, all tested concentrations): increased Gmax
- Gmax compared to spores not pretreated with L-asparagine ([4]; 22° C., 3.0 mM, both native and heat-activated spores): increased Gmax
- Gmax compared to spores not pretreated with L-asparagine ([4]; 22° C., 10 mM, native spores): also increased Gmax
- Gmax ([4]; heat activated spores, 0.5 mM L-asparagine overnight at 4° C.): 106%
- Gmax ([4]; heat activated spores, 0.5 mM L-asparagine overnight at 22° C.): 81%
- Gmax ([4]; heat activated spores, 3.0 mM L-asparagine overnight at 4° C.): 109%
- Gmax ([4]; heat activated spores, 3.0 mM L-asparagine overnight at 22° C.): 102%
- Gmax ([4]; heat activated spores, 10.0 mM L-asparagine overnight at 4° C.): 114%
- Gmax ([4]; heat activated spores, 10.0 mM L-asparagine overnight at 22° C.): 79%
- Gmax ([4]; native spores, 0.5 mM L-asparagine overnight at 4° C.): 29%
- Gmax ([4]; native spores, 0.5 mM L-asparagine overnight at 22° C.): 56%
- Gmax ([4]; native spores, 3.0 mM L-asparagine overnight at 4° C.): 28%
- Gmax ([4]; native spores, 3.0 mM L-asparagine overnight at 22° C.): 100%
- Gmax ([4]; native spores, 10.0 mM L-asparagine overnight at 4° C.): 29%
- Gmax ([4]; native spores, 10.0 mM L-asparagine overnight at 22° C.): 81%

SMILES: N[C@@H](CS)C(=O)O [L-cysteine]
- germination of spores by substance alone [1]: None of L-alanine, L-cysteine, D-fructose, or sucrose alone, at a concentration of 3 mM, caused germination

SMILES: CC(C)[C@H](N)C(=O)O [L-valine]
- Gmax ([5]; 0.5 mM L-valine 24 hours at 4° C.): 74%
- Gmax ([5]; 0.5 mM L-valine 24 hours at 22° C.): 6%
- change of Gmax ([5]; 0.5 mM L-valine at 22° C.): the Gmax decreased
- Gmax ([5]; 3.0 mM L-valine 24 hours at 4° C.): 70%
- Gmax ([5]; 3.0 mM L-valine 24 hours at 22° C.): 43%
- increase in Gmax compared to the control that did not contain L-valine ([5]; 3.0 mM L-valine at 22° C.): ~3 fold
- Gmax ([5]; 10.0 mM L-valine 24 hours at 4° C.): 76%
- Gmax ([5]; 10.0 mM L-valine 24 hours at 22° C.): 77%
- increase in Gmax compared to the control that did not contain L-valine ([5]; 10.0 mM L-valine at 22° C.): ~5 fold
- change of Tlag ([5]; L-valine 0.5-10.0 mM, 4° C. and 22° C.): Tlag was not changed
- effects on germination parameters ([5]; L-valine incubated with spores at 4° C.): small effects on germination parameters
- germinant activity ([1]; tested in combination with individual sugars, and in combination with salts): did not show germinant activity

SMILES: OC[C@H]1O[C@@](CO)(O[C@H]2O[C@H](CO)[C@@H](O)[C@H](O)[C@H]2O)[C@@H](O)[C@@H]1O [sucrose]
- germination of spores by substance alone [1]: None of L-alanine, L-cysteine, D-fructose, or sucrose alone, at a concentration of 3 mM, caused germination
